Assay results: patent US8597640B2, “Over-the-counter vitamin/nutriceutical formulation that provides neuroprotection and maintains or improves cognitive performance in alzheimer's disease and normal aging” (University of Massachusetts Lowell, priority 2007, dated 2013)
“Also recorded” adds a separate entry of the source.

How the values were obtained:
[1] = 12 months, Aisen et al. 2003; cited from earlier work
[2] = 12 months, Aisen et al. 2003; cited from earlier work; remark: listed apart in the source
[3] = tested on: mice lacking one or both murine MTHFR alleles; details: SAM supplementation; Chan et al. (2007) in press; cited from earlier work
[4] = tested on: gamma secretase; assay: Gamma secretase activity in brain homogenates (fluorescent kit); format: in vivo, mouse
Description: (§1) Adult (9-12 months of age) C57B/6 mice that either express (“normal”) or lack murine ApoE (ApoE−/− mice) received a diet (“AIN-76”; Purina/Mother Hubbard, Inc.) either lacking folate and vitamin E (defined as the “deficient diet”) or supplemented with folic acid (4 mg/kg), and vitamin E (50 IU/kg total diet wet weight) (defined as the “complete diet”). The deficient diet was also supplemented in all cases with iron ([…] total diet) as a pro-oxidant (Mihalick et al., (2004) Neuromol. Med. 4:197-202; Shea and Rogers, (2002) Mol. Brain. Res. 108:1-6). Additional groups of mice maintained on each diet received SAM for the entire month (100 mg/kg diet; Chan et al., (2007) in press; Tchantchou et al., (2005) J. Alzheimers Dis. 7:135-138). Following 1 month of maintenance on these diets, mice were sacrificed by cervical dislocation, and the frontal portion of the brain (encompassing cortex and hippocampus) was immediately removed.
Gamma secretase activity was quantified by fluorescent spectroscopy using a gamma secretase activity kit according to the manufacturer's instructions (R&D Systems, Minneapolis, MN), using the APP peptide GVVIATVIV (SEQ ID NO: 5) conjugated to the reporter molecules EDANS and DABCYL and measuring the cleavage-dependent release of signal at 495 nm.

[5] = tested on: Abeta; assay: Abeta levels in murine brain by immunoblot; format: in vivo, mouse; details: normal and ApoE−/− mice
Description: as §1
A portion (40-50 mg) of the above cortical/hippocampal sample was homogenized with 4 volumes of Tris-saline (50 mM Tris HCl, pH 7.4, 150 mM NaCl containing 1 mM EGTA, 0.5 mM diisopropyl fluorophosphate, 0.5 mM phenylmethylsulfonyl fluoride, 1 μg/ml N-p-tosyl-L-lysine chloromethylketone, 0.1 μg/ml pepstatin, 1 μg/ml antipain, and 1 μg/ml leupeptin). The homogenate was centrifuged at […] for 50 minutes at 4° C. […]

[6] = tested on: normal C57B/6 mice; details: SAM administered in isolation; prior studies (Chan et al. 2007); cited from earlier work
[7] = tested on: presenilin-1 (PS-1) expression; assay: PS-1 expression by RT-PCR in murine brain; format: in vivo, mouse; details: normal and ApoE−/− mice, deficient diet + SAM 100 mg/kg diet, 1 month
Description: Adult (9-12 months of age) C57B/6 mice that either express (“normal”) or lack murine ApoE (ApoE−/− mice) received a diet (“AIN-76”; Purina/Mother Hubbard, Inc.) either lacking folate and vitamin E (defined as the “deficient diet”) or supplemented with folic acid (4 mg/kg), and vitamin E (50 IU/kg total diet wet weight) (defined as the “complete diet”). The deficient diet was also supplemented in all cases with iron ([…] total diet) as a pro-oxidant (Mihalick et al., (2004) Neuromol. Med. 4:197-202; Shea and Rogers, (2002) Mol. Brain. Res. 108:1-6). Additional groups of mice maintained on each diet received SAM for the entire month (100 mg/kg diet; Chan et al., (2007) in press; Tchantchou et al., (2005) J. Alzheimers Dis. 7:135-138). […]
To analyze PS-1 expression, total mRNA was extracted from the above homogenate using an RNA isolation kit and stored at −20° C. as described (Chan and Shea, (2006) J. Alzheimers Dis. 9:399-405). Transcription of murine PS-1 was analyzed using a set of primers 5′-[…]-3′ (SEQ ID NO: 1) and 5′-[…]-3′ (SEQ ID NO: 2) respectively, which yielded a product of 557 base pairs (bp) of the murine PS-1 gene. […] Gels were visualized under UV using a Gel Doc 2000 machine from BioRad and analyzed using Quantity One software. […]

[8] = normal mice, deficient diet + SAM

Row | SMILES | performance on the NPI [1] | decline in ADCS-ADL [2] | cognitive performance [3] | effect on gamma-secretase activity ([4]; ApoE−/− mice, SAM supplementation, FIG. 22) | gamma-secretase activity, less than levels on complete diet ([4]; ApoE−/− mice, deficient diet + SAM) | effect on deficient-diet-induced increase in gamma-secretase activity [4, 8] | gamma-secretase activity relative to complete diet [4, 8] | effect on folate-deprivation-induced increase in Abeta levels ([5]; folate-deficient diet + SAM) | Abeta levels, SAM in the presence of folate ([5]; folate-supplemented diet + SAM) | performance of normal mice [6] | effect on deficient-diet-induced increase in PS-1 expression [7]
1 | CS(=O)(=O)c1ccc(C2=C(c3ccccc3)C(=O)OC2)cc1 [rofecoxib] | Neither naproxen nor rofecoxib statistically improved performance on the NPI | nor prevented decline in ADCS-ADL | – | – | – | – | – | – | – | – | –
2 | C[S+](CC[C@H](N)C(=O)O)C[C@H]1O[C@@H](n2cnc3c(N)ncnc32)[C@H](O)[C@@H]1O (stereo partly shown) [SAM, S-adenosyl methionine] | – | – | improved cognitive performance | statistically (p<0.02) reduced secretase activity | approx. 40% | attenuated by half; also recorded: reduced secretase activity in normal mice (not statistically significant) | approx. 35% | prevented these increases; also recorded: alleviated these increases | did not alter values obtained with folate alone | did not improve the performance of normal mice | prevented these increases; also recorded: prevented or attenuated these increases
3 | COc1ccc2cc([C@H](C)C(=O)O)ccc2c1 [naproxen] | Neither naproxen nor rofecoxib statistically improved performance on the NPI | nor prevented decline in ADCS-ADL | – | – | – | – | – | – | – | – | –
